Results reported in patent US10807992B2, “Single enantiomer antiparasitic compounds” (priority 2017, dated 2020).

Tests used:
Ctenocephalides felis = assay: In vitro ingestion activity against fleas (artificial feeding, bovine blood); settings: for mortality at 0.003 ppm: Trial 3, dose 0.003 ppm; for mortality at 0.012 ppm: Trial 3, dose 0.012 ppm; for mortality at 0.049 ppm: Trial 3, dose 0.049 ppm; for mortality at 0.2 ppm: Trial 3, dose 0.20 ppm; for mortality at 0.78 ppm: Trial 3, dose 0.78 ppm; for mortality at 3.125 ppm: Trial 3, dose 3.125 ppm; for mortality at 12.5 ppm: Trial 3, dose 12.5 ppm; for mortality at 50 ppm: Trial 3, dose 50 ppm
Protocol: Ctenocephalides felis (Avista Pharma, Inc., RTP, NC), 1-7days post hatch, held in an environmental chamber at 24° C., 85% humidity.
For flea ingestion tests, serial dilutions of the compound stock were performed using DMSO to achieve the desired range for EC50 and EC90 determination. An aliquot of each compound dilution was added to organic bovine blood with a final DMSO concentration of 0.5% and placed in an artificial feeding container.
Compounds tested were C1 racemate, the C1 (R) enantiomer, and the C1 (S) enantiomer. For Trial 3, the C1 (R) enantiomer and the C1 (S) enantiomer were further chiral purified to achieve >99% purity.
For both contact and ingestion assays, ten newly emerged unfed adult fleas, 0-7 days old Ctenocephalides felis, from a laboratory colony, were aspirated into each vial or cage. The test vials for contact assays were held in an environmental chamber at 24° C., 80% humidity with light/dark cycles (12 hours each). The cages for flea ingestion assays were held in a temperature-controlled artificial feeding apparatus to allow continual access to organic bovine blood containing the desired concentration of compound. Fresh aliquots of compound-spiked bovine blood were provided daily for the duration of the study.
Fleas were evaluated for percent mortality at various time points between 2 hours and 48 hours post infestation. Fleas showing normal movement and/or jumping ability were considered viable and those showing no movement after tapping the vials were scored as dead.

Rhipicephalus sanguineus = assay: In vitro contact activity against adult ticks (coated vial), R. sanguineus; settings: for mortality at 0.006 µM: Trial 3, dose 0.006 μM; for mortality at 0.024 µM: Trial 3, dose 0.024 μM; for mortality at 0.098 µM: Trial 3, dose 0.098 μM; for mortality at 0.39 µM: Trial 3, dose 0.39 μM; for mortality at 1.56 µM: Trial 3, dose 1.56 μM; for mortality at 6.25 µM: Trial 3, dose 6.25 μM; for mortality at 25 µM: Trial 3, dose 25 μM; for mortality at 100 µM: Trial 3, dose 100 μM
Protocol: Rhipicephalus sanguineus, Dermacentor variabilis, Amblyomma americanum, (Ecto Services, Inc., Henderson, N.C.) and Ixodes scapularis (Oklahoma State University, Stillwater, Okla.) aged between 2-4 weeks post molt were held in an environmental chamber at 24° C., 80% humidity with 12-hour light/dark cycles.
For tick assays, vial caps were pre-drilled with a single hole in the center of each cap to allow air exchange. A filter paper (Whatman Grade 540 2.1 cm) was placed in the lid of each vial. An aliquot from each compound stock was added to an acetone/triton solution to achieve the desired top doses for the study. Serial dilutions were conducted from the top dose (i.e. 100 ppm) to achieve the desired titration range for EC50 and EC90 determination. For R. sanguineus, D. variabilis, and A. americanum, the final DMSO concentration in each test vial was 0.5%. For I. scapularis, compounds were solubilized directly in an acetone/triton solution due to I. scapularis' sensitivity to DMSO. A 459 μL aliquot of each compound formulation was transferred to a vial containing a Whatman Grade 540 2.1 cm filter paper. Vials were immediately placed on an unheated roller unit to allow for an even coating of the vial walls. After vials were coated, 41 μL of each compound formulation was added to the filter paper embedded in each vial cap. Each cap was allowed to dry. The vials were loosely capped and allowed to dry for a minimum of four hours in a chemical fume hood.
Compounds tested were: the C1 racemate, C1 (R) enantiomer, and the C1 (S) enantiomer. For Trial 3, the C1 (R) enantiomer and the C1 (S) enantiomer were further chiral purified to achieve >99% purity.
Ten adult ticks were added to each vial and held at 24° C., 80% humidity with 12-hour light/dark cycles. Adult ticks were assessed for percent mortality at various time points between 2 hours and 48 hours post infestation. Ticks were stimulated on a heated roller unit and evaluated. Ticks showing no movement, or very slow and uncoordinated movement were noted as dead.

O=C(CC(F)(F)F)N1CC2(C1)OCc1cc(C3=NSC(c4cc(Cl)c(F)c(Cl)c4)(C(F)(F)F)C3)ccc12 (racemic) [C1 racemate, 1-[6-[5-(3,5-dichloro-4-fluoro-phenyl)-5-(trifluoromethyl)-4H-isothiazol-3-yl]spiro[1H-isobenzofuran-3,3′-azetidine]-1′-yl]-3,3,3-trifluoro-propan-1-one]
mortality at 0.003 ppm (Ctenocephalides felis; 6 h, Rep1): 0% | mortality at 0.003 ppm (Ctenocephalides felis; 6 h, Rep2): 0% | mortality at 0.012 ppm (Ctenocephalides felis; 6 h, Rep1): 0% | mortality at 0.012 ppm (Ctenocephalides felis; 6 h, Rep2): 0% | mortality at 0.049 ppm (Ctenocephalides felis; 6 h, Rep1): 0% | mortality at 0.049 ppm (Ctenocephalides felis; 6 h, Rep2): 0% | mortality at 0.2 ppm (Ctenocephalides felis; 6 h, Rep1): 10% | mortality at 0.2 ppm (Ctenocephalides felis; 6 h, Rep2): 10% | mortality at 0.78 ppm (Ctenocephalides felis; 6 h, Rep1): 70% | mortality at 0.78 ppm (Ctenocephalides felis; 6 h, Rep2): 90% | mortality at 3.125 ppm (Ctenocephalides felis; 6 h, Rep1): 90% | mortality at 3.125 ppm (Ctenocephalides felis; 6 h, Rep2): 70% | mortality at 12.5 ppm (Ctenocephalides felis; 6 h, Rep1): 90% | mortality at 12.5 ppm (Ctenocephalides felis; 6 h, Rep2): 100% | mortality at 50 ppm (Ctenocephalides felis; 6 h, Rep1): 90% | mortality at 50 ppm (Ctenocephalides felis; 6 h, Rep2): 70% | mortality at 0.003 ppm (Ctenocephalides felis; 24 h, Rep1): 0% | mortality at 0.003 ppm (Ctenocephalides felis; 24 h, Rep2): 0% | mortality at 0.012 ppm (Ctenocephalides felis; 24 h, Rep1): 0% | mortality at 0.012 ppm (Ctenocephalides felis; 24 h, Rep2): 0% | mortality at 0.049 ppm (Ctenocephalides felis; 24 h, Rep1): 0% | mortality at 0.049 ppm (Ctenocephalides felis; 24 h, Rep2): 10% | mortality at 0.2 ppm (Ctenocephalides felis; 24 h, Rep1): 30% | mortality at 0.2 ppm (Ctenocephalides felis; 24 h, Rep2): 80% | mortality at 0.78 ppm (Ctenocephalides felis; 24 h, Rep1): 90% | mortality at 0.78 ppm (Ctenocephalides felis; 24 h, Rep2): 90% | mortality at 3.125 ppm (Ctenocephalides felis; 24 h, Rep1): 90% | mortality at 3.125 ppm (Ctenocephalides felis; 24 h, Rep2): 90% | mortality at 12.5 ppm (Ctenocephalides felis; 24 h, Rep1): 90% | mortality at 12.5 ppm (Ctenocephalides felis; 24 h, Rep2): 100% | mortality at 50 ppm (Ctenocephalides felis; 24 h, Rep1): 90% | mortality at 50 ppm (Ctenocephalides felis; 24 h, Rep2): 80% | mortality at 0.003 ppm (Ctenocephalides felis; 48 h, Rep1): 0% | mortality at 0.003 ppm (Ctenocephalides felis; 48 h, Rep2): 0% | mortality at 0.012 ppm (Ctenocephalides felis; 48 h, Rep1): 0% | mortality at 0.012 ppm (Ctenocephalides felis; 48 h, Rep2): 0% | mortality at 0.049 ppm (Ctenocephalides felis; 48 h, Rep1): 10% | mortality at 0.049 ppm (Ctenocephalides felis; 48 h, Rep2): 10% | mortality at 0.2 ppm (Ctenocephalides felis; 48 h, Rep1): 80% | mortality at 0.2 ppm (Ctenocephalides felis; 48 h, Rep2): 80% | mortality at 0.78 ppm (Ctenocephalides felis; 48 h, Rep1): 90% | mortality at 0.78 ppm (Ctenocephalides felis; 48 h, Rep2): 100% | mortality at 3.125 ppm (Ctenocephalides felis; 48 h, Rep1): 90% | mortality at 3.125 ppm (Ctenocephalides felis; 48 h, Rep2): 100% | mortality at 12.5 ppm (Ctenocephalides felis; 48 h, Rep1): 90% | mortality at 12.5 ppm (Ctenocephalides felis; 48 h, Rep2): 100% | mortality at 50 ppm (Ctenocephalides felis; 48 h, Rep1): 90% | mortality at 50 ppm (Ctenocephalides felis; 48 h, Rep2): 90% | mortality at 0.006 µM (Rhipicephalus sanguineus; 2 h, Rep1): 0% | mortality at 0.006 µM (Rhipicephalus sanguineus; 2 h, Rep2): 0% | mortality at 0.024 µM (Rhipicephalus sanguineus; 2 h, Rep1): 0% | mortality at 0.024 µM (Rhipicephalus sanguineus; 2 h, Rep2): 0% | mortality at 0.098 µM (Rhipicephalus sanguineus; 2 h, Rep1): 0% | mortality at 0.098 µM (Rhipicephalus sanguineus; 2 h, Rep2): 0% | mortality at 0.39 µM (Rhipicephalus sanguineus; 2 h, Rep1): 0% | mortality at 0.39 µM (Rhipicephalus sanguineus; 2 h, Rep2): 0% | mortality at 1.56 µM (Rhipicephalus sanguineus; 2 h, Rep1): 0% | mortality at 1.56 µM (Rhipicephalus sanguineus; 2 h, Rep2): 0% | mortality at 6.25 µM (Rhipicephalus sanguineus; 2 h, Rep1): 0% | mortality at 6.25 µM (Rhipicephalus sanguineus; 2 h, Rep2): 0% | mortality at 25 µM (Rhipicephalus sanguineus; 2 h, Rep1): 30% | mortality at 25 µM (Rhipicephalus sanguineus; 2 h, Rep2): 10% | mortality at 100 µM (Rhipicephalus sanguineus; 2 h, Rep1): 10% | mortality at 100 µM (Rhipicephalus sanguineus; 2 h, Rep2): 0% | mortality at 0.006 µM (Rhipicephalus sanguineus; 6 h, Rep1): 0% | mortality at 0.006 µM (Rhipicephalus sanguineus; 6 h, Rep2): 0% | mortality at 0.024 µM (Rhipicephalus sanguineus; 6 h, Rep1): 0% | mortality at 0.024 µM (Rhipicephalus sanguineus; 6 h, Rep2): 0% | mortality at 0.098 µM (Rhipicephalus sanguineus; 6 h, Rep1): 0% | mortality at 0.098 µM (Rhipicephalus sanguineus; 6 h, Rep2): 0% | mortality at 0.39 µM (Rhipicephalus sanguineus; 6 h, Rep1): 10% | mortality at 0.39 µM (Rhipicephalus sanguineus; 6 h, Rep2): 0% | mortality at 1.56 µM (Rhipicephalus sanguineus; 6 h, Rep1): 0% | mortality at 1.56 µM (Rhipicephalus sanguineus; 6 h, Rep2): 0% | mortality at 6.25 µM (Rhipicephalus sanguineus; 6 h, Rep1): 50% | mortality at 6.25 µM (Rhipicephalus sanguineus; 6 h, Rep2): 20% | mortality at 25 µM (Rhipicephalus sanguineus; 6 h, Rep1): 90% | mortality at 25 µM (Rhipicephalus sanguineus; 6 h, Rep2): 100% | mortality at 100 µM (Rhipicephalus sanguineus; 6 h, Rep1): 100% | mortality at 100 µM (Rhipicephalus sanguineus; 6 h, Rep2): 100% | mortality at 0.006 µM (Rhipicephalus sanguineus; 12 h, Rep1): 0% | mortality at 0.006 µM (Rhipicephalus sanguineus; 12 h, Rep2): 0% | mortality at 0.024 µM (Rhipicephalus sanguineus; 12 h, Rep1): 0% | mortality at 0.024 µM (Rhipicephalus sanguineus; 12 h, Rep2): 0% | mortality at 0.098 µM (Rhipicephalus sanguineus; 12 h, Rep1): 0% | mortality at 0.098 µM (Rhipicephalus sanguineus; 12 h, Rep2): 0% | mortality at 0.39 µM (Rhipicephalus sanguineus; 12 h, Rep1): 10% | mortality at 0.39 µM (Rhipicephalus sanguineus; 12 h, Rep2): 0% | mortality at 1.56 µM (Rhipicephalus sanguineus; 12 h, Rep1): 90% | mortality at 1.56 µM (Rhipicephalus sanguineus; 12 h, Rep2): 50% | mortality at 6.25 µM (Rhipicephalus sanguineus; 12 h, Rep1): 80% | mortality at 6.25 µM (Rhipicephalus sanguineus; 12 h, Rep2): 80% | mortality at 25 µM (Rhipicephalus sanguineus; 12 h, Rep1): 90% | mortality at 25 µM (Rhipicephalus sanguineus; 12 h, Rep2): 100% | mortality at 100 µM (Rhipicephalus sanguineus; 12 h, Rep1): 100% | mortality at 100 µM (Rhipicephalus sanguineus; 12 h, Rep2): 100%
